# Laboratory results as given in ChEMBL document CHEMBL1139700 (Bioorg Med Chem Lett, 2006).
# Tests used:
# [1] = target: Neuronal acetylcholine receptor; alpha4/beta2 (Rattus norvegicus, UniProt P09483+P12390); assay: Displacement of [3H]epibatidine from alpha-4-beta-2 nAChR in rat brain cortex membrane; format: cell membranes
# [2] = target: T1, Adrenergic receptor alpha-2 (Rattus norvegicus, UniProt P22086+P19328+P22909); assay: Displacement of [3H]RS 79948-197 from rat cortex adrenergic alpha-2 receptor
# T1 sequence (P22086 whole entry): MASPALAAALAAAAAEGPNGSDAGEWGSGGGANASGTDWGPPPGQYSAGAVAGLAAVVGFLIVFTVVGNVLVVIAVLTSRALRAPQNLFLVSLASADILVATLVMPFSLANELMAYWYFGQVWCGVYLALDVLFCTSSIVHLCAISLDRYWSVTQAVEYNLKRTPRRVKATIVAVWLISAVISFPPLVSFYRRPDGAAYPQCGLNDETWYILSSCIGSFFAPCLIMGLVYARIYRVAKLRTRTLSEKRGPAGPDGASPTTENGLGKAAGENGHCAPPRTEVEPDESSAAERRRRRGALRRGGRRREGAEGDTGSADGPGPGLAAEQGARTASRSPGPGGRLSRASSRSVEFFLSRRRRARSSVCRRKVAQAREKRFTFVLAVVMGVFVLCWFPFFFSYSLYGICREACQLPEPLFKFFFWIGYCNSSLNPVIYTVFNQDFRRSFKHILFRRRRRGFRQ
# T1 sequence (P19328 whole entry): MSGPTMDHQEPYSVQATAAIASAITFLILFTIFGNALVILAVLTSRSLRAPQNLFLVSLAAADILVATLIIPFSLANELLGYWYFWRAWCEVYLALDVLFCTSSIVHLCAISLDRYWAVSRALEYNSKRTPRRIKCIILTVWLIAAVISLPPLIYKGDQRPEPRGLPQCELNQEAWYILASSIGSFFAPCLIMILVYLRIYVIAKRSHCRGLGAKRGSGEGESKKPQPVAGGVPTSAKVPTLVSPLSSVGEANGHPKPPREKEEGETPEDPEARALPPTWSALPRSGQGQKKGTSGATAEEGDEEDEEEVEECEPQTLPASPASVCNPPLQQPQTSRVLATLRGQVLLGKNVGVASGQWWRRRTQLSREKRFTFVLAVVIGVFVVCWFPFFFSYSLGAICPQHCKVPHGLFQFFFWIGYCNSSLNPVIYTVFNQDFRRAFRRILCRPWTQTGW
# T1 sequence (P22909 whole entry): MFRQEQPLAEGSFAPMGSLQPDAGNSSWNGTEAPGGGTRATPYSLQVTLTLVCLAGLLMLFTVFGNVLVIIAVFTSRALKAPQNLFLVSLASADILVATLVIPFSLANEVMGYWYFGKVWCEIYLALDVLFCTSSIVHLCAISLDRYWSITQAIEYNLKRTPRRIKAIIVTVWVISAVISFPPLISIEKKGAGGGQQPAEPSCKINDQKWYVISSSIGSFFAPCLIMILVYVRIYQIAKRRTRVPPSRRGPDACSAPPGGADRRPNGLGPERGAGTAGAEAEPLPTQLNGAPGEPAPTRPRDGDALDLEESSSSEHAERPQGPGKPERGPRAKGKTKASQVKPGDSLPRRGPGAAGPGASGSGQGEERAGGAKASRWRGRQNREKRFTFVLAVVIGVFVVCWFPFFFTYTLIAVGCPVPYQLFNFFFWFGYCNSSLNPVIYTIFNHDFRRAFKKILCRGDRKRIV
# [3] = target: Neuronal acetylcholine receptor subunit alpha-7 (Rattus norvegicus, UniProt Q05941); assay: Displacement of [3H]alpha-Bungarotoxin from alpha-7 nAChR in rat brain cortex membranes; format: cell membranes, Membrane
# Neuronal acetylcholine receptor subunit alpha-7, sequence (Q05941 whole entry): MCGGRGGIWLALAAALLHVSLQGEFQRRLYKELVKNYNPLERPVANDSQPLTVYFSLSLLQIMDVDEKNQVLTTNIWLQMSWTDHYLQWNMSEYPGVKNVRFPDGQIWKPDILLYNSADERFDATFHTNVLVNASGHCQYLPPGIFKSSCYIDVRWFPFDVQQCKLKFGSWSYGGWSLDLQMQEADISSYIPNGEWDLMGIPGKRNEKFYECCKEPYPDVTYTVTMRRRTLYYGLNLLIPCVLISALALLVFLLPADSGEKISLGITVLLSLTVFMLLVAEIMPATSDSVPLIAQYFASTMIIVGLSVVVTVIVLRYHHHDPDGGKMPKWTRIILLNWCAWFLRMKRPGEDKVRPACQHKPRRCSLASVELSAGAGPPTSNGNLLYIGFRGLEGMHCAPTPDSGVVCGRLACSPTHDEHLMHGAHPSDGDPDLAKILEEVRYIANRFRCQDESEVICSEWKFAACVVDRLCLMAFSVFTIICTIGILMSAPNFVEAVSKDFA
# Neuronal acetylcholine receptor; alpha4/beta2, sequence (P09483 whole entry): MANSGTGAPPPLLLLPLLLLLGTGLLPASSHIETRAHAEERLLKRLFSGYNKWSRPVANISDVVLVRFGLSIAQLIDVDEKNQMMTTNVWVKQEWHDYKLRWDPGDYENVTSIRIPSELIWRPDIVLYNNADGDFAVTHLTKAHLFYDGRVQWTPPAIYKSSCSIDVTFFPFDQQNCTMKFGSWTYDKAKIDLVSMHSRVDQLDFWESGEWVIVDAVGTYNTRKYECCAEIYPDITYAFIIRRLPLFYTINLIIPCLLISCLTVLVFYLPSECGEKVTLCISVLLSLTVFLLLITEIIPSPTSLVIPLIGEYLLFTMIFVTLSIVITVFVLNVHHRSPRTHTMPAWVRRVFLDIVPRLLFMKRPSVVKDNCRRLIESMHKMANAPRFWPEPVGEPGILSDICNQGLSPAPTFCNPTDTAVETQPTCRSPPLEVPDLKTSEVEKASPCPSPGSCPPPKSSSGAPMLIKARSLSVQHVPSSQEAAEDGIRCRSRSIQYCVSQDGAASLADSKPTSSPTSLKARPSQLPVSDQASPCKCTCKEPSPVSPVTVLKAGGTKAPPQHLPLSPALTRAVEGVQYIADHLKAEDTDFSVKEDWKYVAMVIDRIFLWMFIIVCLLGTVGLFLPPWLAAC
# Neuronal acetylcholine receptor; alpha4/beta2, sequence (P12390 whole entry): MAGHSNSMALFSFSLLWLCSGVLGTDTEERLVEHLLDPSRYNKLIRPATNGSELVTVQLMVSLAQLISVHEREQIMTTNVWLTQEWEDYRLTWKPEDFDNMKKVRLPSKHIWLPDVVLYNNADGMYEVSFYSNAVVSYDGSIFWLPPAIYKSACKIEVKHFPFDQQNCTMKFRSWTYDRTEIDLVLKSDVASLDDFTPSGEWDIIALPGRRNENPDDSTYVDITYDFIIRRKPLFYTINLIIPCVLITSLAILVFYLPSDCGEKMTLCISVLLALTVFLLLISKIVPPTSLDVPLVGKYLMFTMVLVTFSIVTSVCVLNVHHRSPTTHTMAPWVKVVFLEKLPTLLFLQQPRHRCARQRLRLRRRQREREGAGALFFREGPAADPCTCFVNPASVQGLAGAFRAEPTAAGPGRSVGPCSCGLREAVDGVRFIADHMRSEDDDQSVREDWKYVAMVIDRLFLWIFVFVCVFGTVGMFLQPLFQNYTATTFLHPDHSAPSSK
SMILES,Ki [1] [µM],Ki [2] [µM],Ki [3] [µM]
CN1CCC[C@@H]1[C@H]1COc2ccccc2O1.Cl,2.57,0.47,45
CN1CCC[C@H]1[C@H]1CNC(=O)O1,62,–,117
CN1CCC[C@@H]1[C@@H]1CNC(=O)O1,80,–,338
CN1CCC[C@H]1[C@@H]1COc2ccccc2O1.Cl,0.62,0.77,12
